In PubChem BioAssay AID248 (DTP/NCI, 2004):
Where “and” joins values, the source holds several entries; their conditions need not be identical. Equal values may be shown once. Toxic doses and inconclusive results are not listed. No stated cut-off is given here; in the data, active means T/C of 150% or more; inactive means T/C below 125%.

Tested on: L1210 leukemia ip in BDF1 mice, survival T/C
Assay: NCI In Vivo Anticancer Drug Screen. Data for tumor model L1210 Leukemia (intraperitoneal) in B6D2F1 (BDF1) mice
Conditions: endpoint: mean survival time, higher = longer survival
In short: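 Mice bearing the transplanted tumor received compound or vehicle. Survival of the treated group was divided by that of the vehicle-treated control group to give the ratio.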

[1] = dose: 100.0 mg/kg/injection, schedule: Q04DX002 (ip), vehicle: Klucel (hydroxypropylcellulose) (HPC)
[2] = dose: 200.0 mg/kg/injection, schedule: Q04DX002 (ip), vehicle: Klucel (hydroxypropylcellulose) (HPC)
[3] = dose: 400.0 mg/kg/injection, schedule: Q04DX002 (ip), vehicle: Klucel (hydroxypropylcellulose) (HPC)
[4] = dose: 100.0 mg/kg/injection, schedule: Q04DX003 (ip), vehicle: saline with Tween-80
[5] = dose: 200.0 mg/kg/injection, schedule: Q04DX003 (ip), vehicle: saline with Tween-80
[6] = dose: 100.0 mg/kg/injection, schedule: Q04DX003 (ip), vehicle: saline
[7] = dose: 50.0 mg/kg/injection, schedule: Q04DX003 (ip), vehicle: saline with Tween-80
[8] = dose: 50.0 mg/kg/injection, schedule: Q01DX009 (ip), vehicle: saline with Tween-80
[9] = dose: 100.0 mg/kg/injection, schedule: Q01DX009 (ip), vehicle: saline with Tween-80
[10] = dose: 200.0 mg/kg/injection, schedule: Q01DX009 (ip), vehicle: saline with Tween-80
[11] = dose: 100.0 mg/kg/injection, schedule: Q04DX003 (ip), vehicle: Klucel (hydroxypropylcellulose) (HPC)
[12] = dose: 200.0 mg/kg/injection, schedule: Q04DX003 (ip), vehicle: Klucel (hydroxypropylcellulose) (HPC)
[13] = dose: 400.0 mg/kg/injection, schedule: Q04DX003 (ip), vehicle: Klucel (hydroxypropylcellulose) (HPC)
[14] = dose: 100.0 mg/kg/injection, schedule: Q01DX009 (ip), vehicle: Klucel (hydroxypropylcellulose) (HPC)
[15] = dose: 200.0 mg/kg/injection, schedule: Q01DX009 (ip), vehicle: Klucel (hydroxypropylcellulose) (HPC)
[16] = dose: 400.0 mg/kg/injection, schedule: Q01DX009 (ip), vehicle: Klucel (hydroxypropylcellulose) (HPC)
[17] = dose: 100.0 mg/kg/injection, schedule: Q01DX001 (ip), vehicle: saline

Measured: T/C

O=C(Cc1ccccc1)Nc1ccc(Cl)c(Cl)c1
inactive: [1] 100 % of control | [2] 100 % of control | [3] 96 % of control

COc1cc2c(c3ccccc13)CCCC2=O
inactive: [4] 103 % of control | [5] 93 % of control | dose: 400.0 mg/kg/injection, schedule: Q04DX003 (ip), vehicle: saline with Tween-80 92 % of control

NC(=O)C(O)c1ccccc1 (stereo not drawn)
inactive: [6] 96 % of control | dose: 200.0 mg/kg/injection, schedule: Q04DX003 (ip), vehicle: saline 94 % of control | dose: 400.0 mg/kg/injection, schedule: Q04DX003 (ip), vehicle: saline 100 % of control

O=CNc1ccccc1.[Hg]
inactive: dose: 1.56 mg/kg/injection, schedule: Q04DX003 (ip), vehicle: saline with Tween-80 93 % of control | dose: 3.13 mg/kg/injection, schedule: Q04DX003 (ip), vehicle: saline with Tween-80 92 % of control | dose: 6.25 mg/kg/injection, schedule: Q04DX003 (ip), vehicle: saline with Tween-80 95 % of control and 112 % of control

CC(=O)N=C1C=C(NC(C)=O)C(=O)c2ncccc21
inactive: [7] 96 % of control | [4] 96 % of control

CC/C(=N\N=C(N)N)c1ccc(NC(N)=S)cc1
inactive: dose: 5.0 mg/kg/injection, schedule: Q01DX009 (ip), vehicle: saline 100 % of control | dose: 10.0 mg/kg/injection, schedule: Q01DX009 (ip), vehicle: saline 105 % of control | dose: 20.0 mg/kg/injection, schedule: Q01DX009 (ip), vehicle: saline 107 % of control | dose: 25.0 mg/kg/injection, schedule: Q01DX009 (ip), vehicle: saline 107 % of control | dose: 40.0 mg/kg/injection, schedule: Q01DX009 (ip), vehicle: saline 103 % of control | dose: 80.0 mg/kg/injection, schedule: Q01DX009 (ip), vehicle: saline 117 % of control

COc1cccc(C(=O)C=C(C(F)(F)F)C(F)(F)F)c1
inactive: dose: 25.0 mg/kg/injection, schedule: Q04DX003 (ip), vehicle: saline with Tween-80 95 % of control | [7] 97 % of control | [4] 94 % of control

c1ccc2c(c1)Cc1cc(CN3CCOCC3)ccc1-2
inactive: dose: 50.0 mg/kg/injection, schedule: Q01DX001 (ip), vehicle: carboxymethylcellulose (CMC) 92 % of control | dose: 100.0 mg/kg/injection, schedule: Q01DX001 (ip), vehicle: carboxymethylcellulose (CMC) 100 % of control | dose: 200.0 mg/kg/injection, schedule: Q01DX001 (ip), vehicle: carboxymethylcellulose (CMC) 94 % of control | dose: 400.0 mg/kg/injection, schedule: Q01DX001 (ip), vehicle: carboxymethylcellulose (CMC) 94 % of control

OCCOc1c(Cl)c(Cl)c(Cl)c(Cl)c1Cl
inactive: [8] 101 % of control | [9] 94 % of control | [4] 102 % of control | [10] 103 % of control | [5] 97 % of control

CCC(C)c1c(N)nc(N)[nH]c1=O (stereo not drawn)
inactive: [11] 94 % of control | [12] 106 % of control | [13] 110 % of control

COc1ccc(/C=C2\N=C(c3ccc([N+](=O)[O-])cc3)OC2=O)cc1
inactive: [14] 93 % of control | [15] 91 % of control | [16] 95 % of control

CC1CCC(N=S=O)CC1 (stereo not drawn) (tested in a mixture with another compound)
inactive: dose: 18.75 mg/kg/injection, schedule: Q01DX009 (ip), vehicle: saline with Tween-80 102 % of control | dose: 25.6 mg/kg/injection, schedule: Q04DX002 (ip), vehicle: saline with Tween-80 102 % of control | dose: 37.5 mg/kg/injection, schedule: Q01DX009 (ip), vehicle: saline with Tween-80 102 % of control | dose: 64.0 mg/kg/injection, schedule: Q04DX002 (ip), vehicle: saline with Tween-80 109 % of control | dose: 75.0 mg/kg/injection, schedule: Q01DX009 (ip), vehicle: saline with Tween-80 111 % of control | [4] 101 % of control | dose: 160.0 mg/kg/injection, schedule: Q04DX002 (ip), vehicle: saline with Tween-80 95 % of control

Cc1ccc(C)c(OC(=O)Nc2cccc(C(F)(F)F)c2)c1
inactive: dose: 100.0 mg/kg/injection, schedule: Q01DX001 (ip), vehicle: Klucel (hydroxypropylcellulose) (HPC) 104 % of control | [14] 93 % of control and 110 % of control | [1] 105 % of control | [11] 92 % of control | dose: 200.0 mg/kg/injection, schedule: Q01DX001 (ip), vehicle: Klucel (hydroxypropylcellulose) (HPC) 98 % of control | [15] 96 % of control and 109 % of control | [2] 99 % of control and 115 % of control | [12] 97 % of control | dose: 400.0 mg/kg/injection, schedule: Q01DX001 (ip), vehicle: Klucel (hydroxypropylcellulose) (HPC) 100 % of control | [16] 101 % of control and 86 % of control | [3] 101 % of control and 105 % of control | [13] 103 % of control

CC(C)=CCNc1ncnc2c1nnn2C1OC(CO)C(O)C1O (stereo not drawn)
inactive: dose: 100.0 mg/kg/injection, schedule: Q01DX001 (ip), vehicle: water 105 % of control | dose: 200.0 mg/kg/injection, schedule: Q01DX001 (ip), vehicle: water 101 % of control | dose: 400.0 mg/kg/injection, schedule: Q01DX001 (ip), vehicle: water 101 % of control

O=C1N(O)C2(CCCC(O)C2O)C(=O)C12CCCCC2 (stereo not drawn)
inactive: dose: 75.0 mg/kg/injection, schedule: Q01DX001 (ip), vehicle: saline 103 % of control | dose: 150.0 mg/kg/injection, schedule: Q01DX001 (ip), vehicle: saline 96 % of control | dose: 300.0 mg/kg/injection, schedule: Q01DX001 (ip), vehicle: saline 96 % of control

CCCCCCCCCCCCCCOc1ccc(Cl)cc1Cl
inactive: [14] 107 % of control | [15] 100 % of control | [16] 105 % of control

CC/C(=C/c1ccc2c(c1)OCO2)[N+](=O)[O-]
inactive: dose: 25.0 mg/kg/injection, schedule: Q01DX001 (ip), vehicle: saline 100 % of control | dose: 50.0 mg/kg/injection, schedule: Q01DX001 (ip), vehicle: saline 100 % of control | [17] 100 % of control

O=C(CCl)c1c(O)[n+](Cc2ccccc2)c2ccccn12
inactive: dose: 25.0 mg/kg/injection, schedule: Q04DX003 (ip), vehicle: saline 100 % of control | dose: 50.0 mg/kg/injection, schedule: Q04DX003 (ip), vehicle: saline 96 % of control | [17] 91 % of control | [6] 91 % of control | dose: 150.0 mg/kg/injection, schedule: Q04DX003 (ip), vehicle: saline 97 % of control | dose: 200.0 mg/kg/injection, schedule: Q01DX001 (ip), vehicle: saline 94 % of control | dose: 225.0 mg/kg/injection, schedule: Q04DX003 (ip), vehicle: saline 103 % of control | dose: 335.0 mg/kg/injection, schedule: Q04DX003 (ip), vehicle: saline 106 % of control

Cc1cc(C)c(N(C)C(=O)CCC(=O)O)c(Br)c1
inactive: [14] 89 % of control | [11] 101 % of control | [15] 101 % of control | [12] 100 % of control | [16] 101 % of control | [13] 94 % of control

COc1cc2ccnc(Cc3ccccc3)c2cc1OC
inactive: [8] 103 % of control | [9] 93 % of control and 94 % of control | [4] 102 % of control | [10] 88 % of control | [5] 100 % of control
